Reference: PMC6197744, “Triazolo[4,5-d]pyrimidines as Validated General Control Nonderepressible 2 (GCN2) Protein Kinase Inhibitors Reduce Growth of Leukemia Cells” (Computational and Structural Biotechnology Journal, 2018)
≈ marks a conversion by molar mass, not a printed value. Read-outs that look alike come from different tables or passages of the source.

How the values were obtained:
GCN2 = tested on: GCN2; parameters: method as in PMID 25587754; conditions: biochemical inhibition of kinase activity; cited from earlier work
PERK = target: T1, PERK (Homo sapiens, UniProt Q9NZJ5); assay: radiometric HotSpot kinase assay; format: biochemical; conditions: read-out: % Enzyme inhibition at 10 μM, PERK
T1 construct: purchased Reaction Biology Corporation (Malvern, PA)
T1 sequence (Q9NZJ5 30-1116): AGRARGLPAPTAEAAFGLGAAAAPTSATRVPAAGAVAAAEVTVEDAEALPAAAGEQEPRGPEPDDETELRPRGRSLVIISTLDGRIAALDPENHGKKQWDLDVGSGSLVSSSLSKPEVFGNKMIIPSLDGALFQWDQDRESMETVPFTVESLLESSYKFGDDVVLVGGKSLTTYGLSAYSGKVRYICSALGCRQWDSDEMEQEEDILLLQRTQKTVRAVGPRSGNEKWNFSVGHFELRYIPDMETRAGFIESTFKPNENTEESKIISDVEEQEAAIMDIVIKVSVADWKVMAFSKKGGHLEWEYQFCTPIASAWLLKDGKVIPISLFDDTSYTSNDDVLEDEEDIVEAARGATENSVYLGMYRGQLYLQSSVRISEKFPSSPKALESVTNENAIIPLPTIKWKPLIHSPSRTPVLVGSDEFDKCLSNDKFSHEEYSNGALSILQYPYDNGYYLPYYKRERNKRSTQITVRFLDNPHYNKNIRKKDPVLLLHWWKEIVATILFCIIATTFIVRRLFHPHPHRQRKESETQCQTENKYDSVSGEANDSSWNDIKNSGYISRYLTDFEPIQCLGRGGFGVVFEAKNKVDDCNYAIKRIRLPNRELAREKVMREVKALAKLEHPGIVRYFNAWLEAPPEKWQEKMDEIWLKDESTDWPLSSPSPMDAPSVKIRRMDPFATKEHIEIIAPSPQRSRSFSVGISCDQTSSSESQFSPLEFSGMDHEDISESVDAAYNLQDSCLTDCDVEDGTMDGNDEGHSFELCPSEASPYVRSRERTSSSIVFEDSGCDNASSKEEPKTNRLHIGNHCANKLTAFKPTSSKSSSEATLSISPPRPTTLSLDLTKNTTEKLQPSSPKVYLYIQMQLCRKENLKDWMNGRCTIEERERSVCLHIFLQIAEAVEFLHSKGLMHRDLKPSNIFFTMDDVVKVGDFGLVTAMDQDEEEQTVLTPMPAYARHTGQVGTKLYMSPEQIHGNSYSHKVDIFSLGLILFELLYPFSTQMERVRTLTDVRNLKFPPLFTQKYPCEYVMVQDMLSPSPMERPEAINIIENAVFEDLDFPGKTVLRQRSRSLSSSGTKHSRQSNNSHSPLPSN
Procedure: In vitro compound profiling for recombinant GCN2, PERK, HRI, PKR, or IRE1 kinases were performed at Reaction Biology Corporation (Malvern, PA) using the HotSpot kinase assay. Briefly, all compounds provided for testing were dissolved in 10 mM DMSO stock solutions. […] Specific kinase/substrate mixtures and required cofactors were prepared in reaction buffer (20 mM Hepes (pH 7.5), 10 mM MgCl2, 1 mM EGTA, 0.02% Brij35, 0.02 mg/ml BSA, 0.1 mM Na3VO4, 2 mM DTT, 1% DMSO). Compounds were added to the kinase reaction mixture by Acoustic technology (Echo550; nanoliter range) and incubated for 20 min at room temperature. […] The reaction was incubated or 2 h at room temperature and kinase activity was detected by filter-binding method. IC50 values and curves were generated with GraphPad Prism 7 (GraphPad software).

human GCN2 = target: T2, human GCN2 (Homo sapiens, UniProt Q9P2K8); assay: radiometric HotSpot kinase assay; format: biochemical; conditions: ATP at the ATP Km of GCN2; means of two independent experiments
T2 construct: purchased Reaction Biology Corporation (Malvern, PA)
Procedure: (§1) Compounds 1–9 were screened in a radiometric […] kinase assay against human GCN2 and other kinases involved in the UPR and ISR pathways (Table 1). […] The most soluble of the potent tool compounds (1 and 2) were selected for in vitro cell-based assays where the phosphorylation of eIF2α (p-eIF2α) was used as a readout for GCN2 inhibition.
(§2) In vitro compound profiling for recombinant GCN2, PERK, HRI, PKR, or IRE1 kinases were performed at Reaction Biology Corporation (Malvern, PA) using the HotSpot kinase assay. Briefly, all compounds provided for testing were dissolved in 10 mM DMSO stock solutions. Serial dilutions were conducted by epMotion 5070 in DMSO. Specific kinase/substrate mixtures and required cofactors were prepared in reaction buffer (20 mM Hepes (pH 7.5), 10 mM MgCl2, 1 mM EGTA, 0.02% Brij35, 0.02 mg/ml BSA, 0.1 mM Na3VO4, 2 mM DTT, 1% DMSO). Compounds were added to the kinase reaction mixture by Acoustic technology (Echo550; nanoliter range) and incubated for 20 min at room temperature. The kinase reaction was initiated by adding ^33P ATP to a final concentration of 10 μM for single point kinase activity reading or to the ATP Km of GCN2 for IC50 readings. The reaction was incubated or 2 h at room temperature and kinase activity was detected by filter-binding method. IC50 values and curves were generated with GraphPad Prism 7 (GraphPad software).

Kinetic solubility assay = format: physicochemical; conditions: aqueous buffer, kinetic from dmso stock; PBS pH 7.4, 25 °C, 2 h
Procedure: Compound solubility was determined in PBS at pH 7.4 by Pharmaron, Inc. (Beijing, China). Briefly, all compounds and control solutions were prepared in DMSO at concentrations of 10 mM. Diclofenac was used as a positive control. 10 μL or 30 μL of each compound was added into a 96-well plate, followed by adding 990 μL or 970 μL, respectively, of PBS at pH 7.4. A stir stick was added to each well and wells were sealed using a molded PTDE/SIL 96-Well Plate Cover. […] After incubation the samples were transferred into the filter plate and filtered by Vacuum Manifold. The filtered samples were diluted with methanol to obtain 3 μM standards (STD). The samples were analyzed by LC-MS/MS against a standard of known concentration in DMSO. The solubility values of duplicate test compounds were calculated in Microsoft Excel using the following equation, where DF means dilution factor: Sample=AREASample×INJVOLStd×DFSample×STD/AREAStd×INJVOLSample

[1] = Permeability assay (PAMPA); format: in vitro ADME; conditions: pH 7.4, 25 °C, <10 low, >10 high permeability
Procedure: GCN2 compound permeability was determined by PAMPA and was performed by Pharmaron, Inc. (Beijing, China). All compounds and control stock solutions were prepared in DMSO at a concentration of 10 mM. Testosterone and methotrexate were used as control compounds. Compound stock solutions were diluted with PBS (pH 7.4) to a final concentration of 10 μM. A 1.8% solution (w/v) of lecithin in dodecane was prepared and sonicated to ensure a complete dissolution. 5 μL of the lecithin/dodecane mixture were pipetted into each acceptor plate well (top compartment). Immediately after the application of the artificial membrane (within 10 min), 300 μL of PBS (pH 7.4) solution were added to each well of the acceptor plate. 300 μL of drug-containing solutions were added to each well of the donor plate (bottom compartment) in triplicate. The plate lid was replaced and incubated at 25 °C, 60 rpm for 16 h. After incubation, aliquots of 50 μL from each well of acceptor and donor plate were transferred into a 96-well plate and 200 μL of methanol (containing IS: 100 nM Alprazolam, 200 nM Labetalol and 2 μM Ketoprofen) was added to each well. The plate was vortexed at 750 rpm for 100 s. Samples were centrifuged at 3220g for 20 min. The compound concentrations were determined by LC/MS/MS. The effective permeability (Pe), in units of centimeter per second were calculated using the following equation: logPe=logC×−ln1−drugacceptor/drugequilibrium

IRE1 = target: T3, IRE1 (Homo sapiens, UniProt O75460); assay: radiometric HotSpot kinase assay; format: biochemical; conditions: 10 μM compound, 10 μM ATP; read-out: % Enzyme inhibition at 10 μM, IRE1
T3 construct: purchased Reaction Biology Corporation (Malvern, PA)
Procedure: as §1, §2

HRI = target: T4, HRI (Homo sapiens, UniProt Q9BQI3); assay: radiometric HotSpot kinase assay; format: biochemical; conditions: 10 μM compound, 10 μM ATP; read-out: % Enzyme inhibition at 10 μM, HRI
T4 construct: purchased Reaction Biology Corporation (Malvern, PA)
Procedure: as §1, §2

PKR = target: T5, PKR (Homo sapiens, UniProt P19525); assay: radiometric HotSpot kinase assay; format: biochemical; conditions: 10 μM compound, 10 μM ATP; read-out: % Enzyme inhibition at 10 μM, PKR
T5 construct: purchased Reaction Biology Corporation (Malvern, PA)
Procedure: as §1, §2

T5 sequence (P19525 whole entry): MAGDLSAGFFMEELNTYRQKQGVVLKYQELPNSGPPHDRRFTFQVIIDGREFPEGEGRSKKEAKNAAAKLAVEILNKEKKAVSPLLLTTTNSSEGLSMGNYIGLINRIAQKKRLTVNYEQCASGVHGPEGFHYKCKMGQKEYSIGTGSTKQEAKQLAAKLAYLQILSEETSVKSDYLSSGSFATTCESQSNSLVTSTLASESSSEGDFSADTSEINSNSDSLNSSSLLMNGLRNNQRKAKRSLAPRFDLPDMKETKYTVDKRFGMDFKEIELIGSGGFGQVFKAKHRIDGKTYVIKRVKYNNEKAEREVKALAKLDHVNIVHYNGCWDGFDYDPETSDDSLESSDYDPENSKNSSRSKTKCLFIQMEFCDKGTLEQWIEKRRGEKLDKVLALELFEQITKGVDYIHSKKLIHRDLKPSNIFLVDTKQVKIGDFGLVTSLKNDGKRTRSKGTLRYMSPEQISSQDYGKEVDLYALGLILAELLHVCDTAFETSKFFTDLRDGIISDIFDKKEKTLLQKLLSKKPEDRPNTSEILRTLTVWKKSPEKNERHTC
T4 sequence (Q9BQI3 whole entry): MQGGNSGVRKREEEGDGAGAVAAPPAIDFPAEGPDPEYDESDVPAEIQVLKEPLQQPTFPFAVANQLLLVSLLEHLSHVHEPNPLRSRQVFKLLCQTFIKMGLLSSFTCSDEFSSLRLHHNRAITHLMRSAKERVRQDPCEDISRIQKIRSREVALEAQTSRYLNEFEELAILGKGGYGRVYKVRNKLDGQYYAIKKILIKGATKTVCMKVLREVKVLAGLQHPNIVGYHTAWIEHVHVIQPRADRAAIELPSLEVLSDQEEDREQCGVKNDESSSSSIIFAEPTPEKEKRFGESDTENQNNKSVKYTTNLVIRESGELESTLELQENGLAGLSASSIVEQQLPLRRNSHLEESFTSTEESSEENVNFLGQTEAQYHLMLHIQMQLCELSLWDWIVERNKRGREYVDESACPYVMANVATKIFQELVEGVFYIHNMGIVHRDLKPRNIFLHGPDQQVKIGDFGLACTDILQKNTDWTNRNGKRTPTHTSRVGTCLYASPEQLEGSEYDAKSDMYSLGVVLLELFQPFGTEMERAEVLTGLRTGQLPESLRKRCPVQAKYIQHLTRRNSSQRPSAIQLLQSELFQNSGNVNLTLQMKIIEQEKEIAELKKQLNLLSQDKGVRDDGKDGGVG
T3 sequence (O75460 19-977): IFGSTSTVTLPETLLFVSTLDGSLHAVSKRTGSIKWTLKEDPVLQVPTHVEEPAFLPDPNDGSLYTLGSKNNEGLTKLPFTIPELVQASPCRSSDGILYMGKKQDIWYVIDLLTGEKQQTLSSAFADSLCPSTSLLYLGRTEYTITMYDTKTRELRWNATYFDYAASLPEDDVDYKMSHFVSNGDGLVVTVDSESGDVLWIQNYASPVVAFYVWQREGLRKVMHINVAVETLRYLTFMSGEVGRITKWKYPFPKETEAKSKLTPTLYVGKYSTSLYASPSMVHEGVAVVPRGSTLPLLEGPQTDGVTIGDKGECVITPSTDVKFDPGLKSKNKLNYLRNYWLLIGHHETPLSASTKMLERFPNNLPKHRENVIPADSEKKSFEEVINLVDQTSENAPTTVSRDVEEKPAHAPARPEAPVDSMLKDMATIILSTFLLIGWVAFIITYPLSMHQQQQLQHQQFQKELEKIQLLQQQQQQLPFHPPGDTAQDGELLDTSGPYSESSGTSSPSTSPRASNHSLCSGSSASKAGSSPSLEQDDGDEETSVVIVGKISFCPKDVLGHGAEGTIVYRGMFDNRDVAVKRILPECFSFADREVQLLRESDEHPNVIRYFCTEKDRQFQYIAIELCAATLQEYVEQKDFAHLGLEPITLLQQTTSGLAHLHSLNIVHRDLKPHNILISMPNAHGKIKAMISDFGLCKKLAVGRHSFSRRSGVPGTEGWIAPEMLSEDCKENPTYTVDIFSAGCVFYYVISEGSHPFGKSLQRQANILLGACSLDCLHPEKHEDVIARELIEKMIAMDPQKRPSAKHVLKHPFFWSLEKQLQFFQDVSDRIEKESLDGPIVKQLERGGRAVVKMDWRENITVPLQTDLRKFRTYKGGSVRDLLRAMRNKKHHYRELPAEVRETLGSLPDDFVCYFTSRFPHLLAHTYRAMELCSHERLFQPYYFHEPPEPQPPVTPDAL
T2 sequence (Q9P2K8 whole entry): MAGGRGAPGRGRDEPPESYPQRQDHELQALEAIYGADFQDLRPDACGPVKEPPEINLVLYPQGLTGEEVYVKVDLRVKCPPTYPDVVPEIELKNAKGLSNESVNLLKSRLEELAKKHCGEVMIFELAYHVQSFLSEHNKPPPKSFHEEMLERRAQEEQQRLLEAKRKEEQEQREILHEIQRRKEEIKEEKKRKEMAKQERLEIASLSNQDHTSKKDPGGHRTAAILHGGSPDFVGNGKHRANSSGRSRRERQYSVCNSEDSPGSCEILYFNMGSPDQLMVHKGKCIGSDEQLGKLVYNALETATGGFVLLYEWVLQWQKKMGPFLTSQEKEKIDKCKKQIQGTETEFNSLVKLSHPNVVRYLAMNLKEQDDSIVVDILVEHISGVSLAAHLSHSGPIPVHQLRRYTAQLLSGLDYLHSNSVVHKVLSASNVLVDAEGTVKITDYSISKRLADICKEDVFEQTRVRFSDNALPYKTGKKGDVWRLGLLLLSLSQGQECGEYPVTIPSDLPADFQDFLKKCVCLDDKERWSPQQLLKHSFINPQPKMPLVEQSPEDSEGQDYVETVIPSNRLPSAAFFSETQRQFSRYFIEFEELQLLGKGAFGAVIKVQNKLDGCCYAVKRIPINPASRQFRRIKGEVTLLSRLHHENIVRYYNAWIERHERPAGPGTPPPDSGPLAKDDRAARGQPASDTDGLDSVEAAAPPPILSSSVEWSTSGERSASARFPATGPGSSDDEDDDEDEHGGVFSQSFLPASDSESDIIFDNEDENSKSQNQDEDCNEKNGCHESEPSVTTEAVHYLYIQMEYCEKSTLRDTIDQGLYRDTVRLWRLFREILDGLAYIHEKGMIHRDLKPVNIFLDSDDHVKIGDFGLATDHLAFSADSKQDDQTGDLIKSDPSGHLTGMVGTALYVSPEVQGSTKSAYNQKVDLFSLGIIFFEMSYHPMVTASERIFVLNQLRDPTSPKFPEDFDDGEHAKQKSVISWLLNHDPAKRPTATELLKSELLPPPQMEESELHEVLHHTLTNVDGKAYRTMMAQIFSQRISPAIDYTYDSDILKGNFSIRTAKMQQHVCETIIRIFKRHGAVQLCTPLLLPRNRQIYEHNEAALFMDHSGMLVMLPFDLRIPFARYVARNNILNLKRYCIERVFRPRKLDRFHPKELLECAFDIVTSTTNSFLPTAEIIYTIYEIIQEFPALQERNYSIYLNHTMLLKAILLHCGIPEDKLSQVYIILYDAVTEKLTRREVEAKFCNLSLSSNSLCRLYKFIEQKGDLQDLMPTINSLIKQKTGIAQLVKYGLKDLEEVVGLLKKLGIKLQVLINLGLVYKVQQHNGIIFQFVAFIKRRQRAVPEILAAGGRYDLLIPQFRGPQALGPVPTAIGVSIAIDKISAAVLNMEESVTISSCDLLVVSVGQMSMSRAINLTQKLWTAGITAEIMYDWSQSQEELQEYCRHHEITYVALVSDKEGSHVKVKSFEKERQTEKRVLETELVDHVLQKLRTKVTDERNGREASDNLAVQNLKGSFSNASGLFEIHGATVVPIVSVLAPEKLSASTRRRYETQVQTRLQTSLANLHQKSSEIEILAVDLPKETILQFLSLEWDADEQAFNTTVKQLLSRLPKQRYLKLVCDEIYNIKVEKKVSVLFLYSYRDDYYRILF

| inhibition at 10 µM (PERK; 10 μM compound, 10 μM ATP) [%] | IC50 (human GCN2) [nM] | solubility at 2 h (Kinetic solubility assay) [µM] | Papp at 16 h, 10 μM [1] [×10⁻⁶ cm/s] | inhibition at 10 µM (IRE1) [%] | inhibition at 10 µM (HRI) [%] | inhibition at 10 µM (PKR) [%] | inhibition at 10 µM (PERK) [%] | SMILES | IC50 (GCN2) [nM] |
| --- | --- | --- | --- | --- | --- | --- | --- | --- | --- |
| – | – | – | – | – | – | – | – | CNc1ncc2c(F)c(-c3c(C)ccc(C(=O)c4c(-c5ccccc5)n(C)n(-c5ccccc5)c4=O)c3N)ccc2n1 [4-{2-amino-3-[5-fluoro-2-(methylamino)quinazolin-6-yl]-4-methylbenzoyl}-1-methyl-2,5-diphenyl-1,2-dihydro-3H-pyrazol-3-one] | 36 |
| 25 | 44.5 | – | – | – | – | – | – | CCOc1ccc(-n2nnc3cnc(Nc4cnn(C5CCOCC5)c4)nc32)cc1 [Compound 3, 3-(4-Ethoxyphenyl)-N-(1-(tetrahydro-2H-pyran-4-yl)-1H-pyrazol-4-yl)-3H-[1,2,3]triazolo[4,5-d]pyrimidin-5-amine] | – |
| < 10 | 25.7 | 0.05 (≈ 0.0207 µg/mL) | 2.19 | 18 | < 10 | 96 | – | Fc1cc(-n2nnc3cnc(Nc4cnn(C5CCOCC5)c4)nc32)ccc1Cl [Compound 4, 3-(4-Chloro-3-fluorophenyl)-N-(1-(tetrahydro-2H-pyran-4-yl)-1H-pyrazol-4-yl)-3H-[1,2,3]triazolo[4,5-d]pyrimidin-5-amine] | – |
| < 10 | 17.2 | 0.2 (≈ 0.0841 µg/mL) | 10.5 | 22 | < 10 | 96 | – | COC(=O)c1ccc(-n2nnc3cnc(Nc4cnn(C5CCOCC5)c4)nc32)cc1 [Compound 5, Methyl 4-(5-((1-(tetrahydro-2H-pyran-4-yl)-1H-pyrazol-4-yl)amino)-3H-[1,2,3]triazolo[4,5-d]pyrimidin-3-yl)benzoate] | – |
| 35 | 20.5 | – | – | – | – | – | – | c1nn(C2CCOCC2)cc1Nc1ncc2nnn(-c3ccc4cn[nH]c4c3)c2n1 [Compound 6, 3-(1H-Indazol-6-yl)-N-(1-(tetrahydro-2H-pyran-4-yl)-1H-pyrazol-4-yl)-3H-[1,2,3]triazolo[4,5-d]pyrimidin-5-amine] | – |
| 24 | 22.4 | – | – | – | – | – | – | CCOc1ccc(-n2nnc3cnc(Nc4cnn([C@H]5CC[C@H](O)CC5)c4)nc32)cc1 [Compound 7, trans-4-(4-((3-(4-Ethoxyphenyl)-3H-[1,2,3]triazolo[4,5-d]pyrimidin-5-yl)amino)-1H-pyrazol-1-yl)cyclohexan-1-ol] | – |
| < 10 | 21.1 | 0.1 (≈ 0.0429 µg/mL) | 4.68 | 15 | < 10 | 98 | – | O[C@H]1CC[C@H](n2cc(Nc3ncc4nnn(-c5ccc(Cl)c(F)c5)c4n3)cn2)CC1 [Compound 8, trans-4-(4-((3-(4-chloro-3-fluorophenyl)-3H-[1,2,3]triazolo[4,5-d]pyrimidin-5-yl)amino)-1H-pyrazol-1-yl)cyclohexan-1-ol] | – |
| 14 | 46.4 | 0.17 (≈ 0.0739 µg/mL) | 2.29 | 24 | < 10 | 95 | – | COC(=O)c1ccc(-n2nnc3cnc(Nc4cnn([C@H]5CC[C@H](O)CC5)c4)nc32)cc1 [Compound 9, methyl 4-(5-((1-(trans-4-hydroxycyclohexyl)-1H-pyrazol-4-yl)amino)-3H-[1,2,3]triazolo[4,5-d]pyrimidin-3-yl)benzoate] | – |
| – | > 10000 | – | – | – | – | – | 100 | Cc1cccc(CC(=O)N2CCc3c2ccc(-c2cn(C)c4ncnc(N)c24)c3F)n1 [GSK2656157, reference compound] | – |
